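Exposure lasted 48 hours, with cells grown in 96-well plates and compounds tested at five concentrations. GI50: concentration for 50% inhibition of growth.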 Active and inactive are the calls of the source. Cut-off read from the data, not from the text of the source: active = GI50 up to about 1.1 µM and inactive = higher.
Tests used:
Assay in all cases: growth of human tumour cells (NCI), 48 h
SK-MEL-2 = tested on: SK-MEL-2
OVCAR-5 = tested on: OVCAR-5
CAKI-1 = tested on: CAKI-1
OVCAR-3 = tested on: OVCAR-3
NCI-H460 = tested on: NCI-H460
NCI-H522 = tested on: NCI-H522
OVCAR-8 = tested on: OVCAR-8
RXF 393 = tested on: RXF 393
SW-620 = tested on: SW-620
A549 = tested on: A549
SK-MEL-5 = tested on: SK-MEL-5
COLO 205 = tested on: COLO 205
Malme-3M = tested on: Malme-3M
IGROV-1 = tested on: IGROV-1
UACC-257 = tested on: UACC-257
CCRF-CEM = tested on: CCRF-CEM
DU-145 = tested on: DU-145
HT-29 = tested on: HT-29
SNB-75 = tested on: SNB-75
NCI/ADR-RES = tested on: NCI/ADR-RES
HCT-15 = tested on: HCT-15
U-251 = tested on: U-251
SF-268 = tested on: SF-268
M14 = tested on: M14
K562 = tested on: K562
SN12C = tested on: SN12C
ACHN = tested on: ACHN
PC-3 = tested on: PC-3
HOP-92 = tested on: HOP-92
HL-60 = tested on: HL-60
MDA-MB-435 = tested on: MDA-MB-435
HCC 2998 = tested on: HCC 2998
MOLT-4 = tested on: MOLT-4
KM12 = tested on: KM12
OVCAR-4 = tested on: OVCAR-4
RPMI-8226 = tested on: RPMI-8226
UACC-62 = tested on: UACC-62
EKVX = tested on: EKVX
SR = tested on: SR
A498 = tested on: A498
786-0 = tested on: 786-0
HOP-62 = tested on: HOP-62
MDA-MB-231 = tested on: MDA-MB-231
TK-10 = tested on: TK-10
SF-295 = tested on: SF-295
NCI-H23 = tested on: NCI-H23
Hs-578T = tested on: Hs-578T
LOX IMVI = tested on: LOX IMVI
NCI-H226 = tested on: NCI-H226
SF-539 = tested on: SF-539
T47D = tested on: T47D
MCF7 = tested on: MCF7
SNB-19 = tested on: SNB-19
SK-MEL-28 = tested on: SK-MEL-28
HCT-116 = tested on: HCT-116
SK-OV-3 = tested on: SK-OV-3
MDA-N = tested on: MDA-N
UO-31 = tested on: UO-31

Measured: GI50

Fc1c(F)c(F)c2c(c1F)CSc1nc3ccccc3n1-2
inactive: SK-MEL-2 > 100 µM | OVCAR-5 > 100 µM | CAKI-1 > 100 µM | OVCAR-3 > 100 µM | NCI-H460 > 100 µM | NCI-H522 > 100 µM | OVCAR-8 > 100 µM | RXF 393 > 100 µM | SW-620 > 100 µM | A549 > 100 µM | SK-MEL-5 > 100 µM | COLO 205 > 100 µM | Malme-3M > 100 µM | IGROV-1 > 100 µM | UACC-257 > 100 µM | CCRF-CEM > 100 µM | DU-145 > 100 µM | HT-29 > 100 µM | SNB-75 > 100 µM | NCI/ADR-RES > 100 µM | U-251 > 100 µM | SF-268 > 100 µM | M14 > 100 µM | K562 > 100 µM | SN12C > 100 µM | ACHN > 100 µM | PC-3 > 100 µM | HOP-92 > 100 µM | HL-60 > 100 µM | MDA-MB-435 > 100 µM | HCC 2998 > 100 µM | MOLT-4 > 100 µM | KM12 > 100 µM | OVCAR-4 > 100 µM | RPMI-8226 > 100 µM | UACC-62 > 100 µM | EKVX 5.16 µM | SR > 100 µM | A498 > 100 µM | 786-0 > 100 µM | HOP-62 > 100 µM | MDA-MB-231 > 100 µM | TK-10 > 100 µM | SF-295 > 100 µM | NCI-H23 > 100 µM | Hs-578T > 100 µM | LOX IMVI > 100 µM | NCI-H226 > 100 µM | SF-539 > 100 µM | T47D > 100 µM | MCF7 > 100 µM | SNB-19 > 100 µM | SK-MEL-28 > 100 µM | HCT-116 > 100 µM | SK-OV-3 > 100 µM
> 100 µM: HCT-15

Cc1ccc2c(c1)Nc1ccccc1P2(=O)O
> 100 µM: HCT-15
inactive: SK-MEL-2 > 100 µM | OVCAR-5 > 100 µM | CAKI-1 > 100 µM | OVCAR-3 > 100 µM | MDA-N > 100 µM | NCI-H460 > 100 µM | NCI-H522 > 100 µM | OVCAR-8 > 100 µM | RXF 393 > 100 µM | SW-620 > 100 µM | A549 > 100 µM | SK-MEL-5 > 100 µM | COLO 205 > 100 µM | Malme-3M > 100 µM | UO-31 > 100 µM | IGROV-1 > 100 µM | UACC-257 > 100 µM | CCRF-CEM > 100 µM | DU-145 > 100 µM | HT-29 > 100 µM | NCI/ADR-RES > 100 µM | U-251 > 100 µM | SF-268 > 100 µM | M14 > 100 µM | K562 > 100 µM | SN12C > 100 µM | ACHN > 100 µM | PC-3 > 100 µM | HOP-92 > 100 µM | HL-60 > 100 µM | MDA-MB-435 > 100 µM | HCC 2998 > 100 µM | MOLT-4 > 100 µM | KM12 > 100 µM | OVCAR-4 > 100 µM | UACC-62 > 100 µM | EKVX > 100 µM | SR > 100 µM | A498 > 100 µM | 786-0 > 100 µM | HOP-62 > 100 µM | MDA-MB-231 > 100 µM | TK-10 > 100 µM | SF-295 > 100 µM | NCI-H23 > 100 µM | LOX IMVI > 100 µM | NCI-H226 > 100 µM | SF-539 > 100 µM | T47D > 100 µM | SNB-19 > 100 µM | SK-MEL-28 > 100 µM | HCT-116 > 100 µM | SK-OV-3 > 100 µM
active: SNB-75 < 0.01 µM

Source: ChEMBL document CHEMBL1201862, “PubChem BioAssay data set” (2004)
